According to article PMC7859449, “Short Chain (≤C4) Esterification Increases Bioavailability of Rosmarinic Acid and Its Potency to Inhibit Vascular Smooth Muscle Cell Proliferation” (Frontiers in Pharmacology, 2021):
“And” between values parts separate entries of the source, which are not always exact repeats. Equal values may be shown once. Read-outs that look alike come from different tables or passages of the source. Each block holds one molecule with its values, some of them ahead of it.

What was measured:
[1] = tested on: PDGF-BB-induced VSMC proliferation; assay: Proliferation assay (resazurin conversion) in PDGF-BB-stimulated VSMC; type: cell-based, rat; settings: for activity at 10 µM / IC50: Rattus norvegicus, resazurin; for activity at 10 µM: VSMC, 10 μmol/L, PDGF-BB 20 ng/mL 48 h, read-out: VSMC proliferation at 10 μmol/L (relative to vehicle control, RU); for IC50: PDGF-BB-induced VSMC proliferation
Experimental: Primary VSMC were cultivated in DMEM-F12 (1:1) supplemented with 20% fetal bovine serum, 30 μg/ml gentamicin, and 15 ng/mL amphotericin B at 37°C in an incubator with 5% CO2 flow in a humidified atmosphere. Passages 4 to 12 were used in experiments.
Resazurin conversion to fluorescent resorufin was used as a measure for cell proliferation. Primary VSMC were seeded at 5 × 10^3 cells/well in a 96-well plate to grow for the next 24 h. Cells were then synchronized into G0 phase by serum deprivation for 24 h, pretreated with compounds for 30 min and stimulated with 20 ng/mL PDGF-BB for the next 48 h. After one washing step, cells were incubated in starvation medium containing 10 μg/mL resazurin for 2 h, and changes in fluorescence were monitored in a Tecan Spark (Tecan Group, Männedorf, Switzerland) plate reader at an excitation wavelength of 535 nm and an emission wavelength of 580 nm.

PDGF-BB-induced VSMC = assay: Cell cycle analysis (PI staining, flow cytometry); type: cell-based, rat; settings: 3 μmol/L, PDGF-BB 16 h
Experimental: Flow cytometry was used to analyze cell cycle progression. VSMC were seeded at a density of 10^5 cells per well in 12-well plates. After rendered quiescent, cells were treated with increasing concentrations of RAME (7), RAET (8), RABU (9) and RAOCT (10) or with 0.1% DMSO for 30 min followed by stimulation with 20 ng/mL PDGF-BB for 16 h. Cells were collected by trypsinization, washed and resuspended in a hypotonic propidium iodide (PI) solution containing 0.1% (v/v) Triton X-100, 0.1% (w/v) sodium citrate, and 50 μg/mL PI. PI-stained nuclei were analyzed on a FACSCalibur (BD Biosciences, Vienna, Austria) flow cytometer at an excitation wavelength of 488 nm and an emission wavelength of 585 nm.
FIGURE 5 Ethyl, butyl and octyl esters of rosmarinic acid (RA) inhibit the proliferation of VSMC by exerting the same mechanism of action as the methyl ester (A) Quiescent VSMC were treated with 0.1% DMSO or increasing concentrations of RA esters as indicated for 30 min, stimulated with 20 ng/mL PDGF-BB for 16 h and the cell cycle progression was analyzed using PI staining and flow cytometry. […]

VSMC = assay: Cytotoxicity assay (LDH release) in PDGF-induced VSMC; type: cell-based; settings: PDGF-BB 24 h
Experimental: Increased lactate dehydrogenase (LDH) release is an indicator for the loss of cell membrane integrity, associated with cell death. Determination of LDH release in response to increasing concentrations of RAME (7), RAET (8), RABU (9), RAOCT (10) and RADOD (11) was performed as previously described ([Liu et al., 2018]).
FIGURE 4 Cytotoxicity of RA esters in PDGF-induced VSMC. VSMC were pretreated with 0.1% DMSO or increasing concentrations of RA esters as indicated for 30 min, stimulated with 20 ng/mL PDGF-BB for 24 h, and released LDH was determined. Digitonin (80 μmol/L) was used as a positive control. Graphs show means ± SD out of 3 (RAME, RAET and RABU) and 4 (RAOCT and RADOD) independent experiments (n.s., not significant, p > 0.05, **p < 0.01, ***p < 0.001, ANOVA/Bonferroni, “vehicle with PDGF-BB” vs. “RA ester with PDGF-BB”).

cultured VSMC = assay: Intracellular bioavailability of RA esters (LC-MS/MS of cytoplasmic fractions); type: in vitro ADME, rat; settings: for intracellular concentration as share of applied concentration: 10 μmol/L applied; for intracellular content normalized to protein: at 8.5 h; for intracellularly accumulated concentration: after 0.5 h exposure to 10 μmol/L; for intracellular level relative to those of RAME and RAET: exposure to 10 μmol/L
Experimental: After cells had been lysed and membranes had been removed by centrifugation, as described in the previous section, half of the cytoplasmic fractions were collected in 1.5 mL eppendorf tubes, diluted with methanol in 1:3 ratios and centrifuged at 5,600 × g for 20 min to remove proteins. Supernatants were then subjected to LC-MS/MS analysis to determine the cytoplasmic concentrations of RA esters at each treatment time point up to 16 h PDGF-BB stimulation. Cell culture media were also collected prior to the lysis procedure, diluted with methanol in a manner described above and subjected to LC-MS/MS. […] Intracellular concentrations of RA esters were normalized to protein concentrations at each treatment time point. Details of the quantification method are shown in the Supplementary Material.
FIGURE 6 Esters of rosmarinic acid with longer alkyl groups show increased intracellular bioavailability.

CDK4 = tested on: CDK4; set-up: method as in Liu et al., 2018; settings: ref Liu et al., 2018; cited from earlier work
CDK2 = tested on: CDK2; set-up: method as in Liu et al., 2018; settings: CDK2 kinase activity in vitro; ref Liu et al., 2018; cited from earlier work
[2] = Stability of RA QC samples under different storage conditions; type: physicochemical, rat
[3] = set-up: method as in earlier work; settings: rats and humans; ref Nakazawa and Ohsawa, 1998; Baba et al., 2005; Wang et al., 2017; cited from earlier work
[4] = set-up: method as in Nakazawa and Ohsawa, 1998; settings: rat; ref Nakazawa and Ohsawa, 1998; cited from earlier work
[5] = set-up: method as in Baba et al., 2005; settings: human; ref Baba et al., 2005; cited from earlier work
[6] = Long-term stability (15 d at -20°C), nominal 2 ng/mL
[7] = Long-term stability (15 d at -20°C), nominal 800 ng/mL
[8] = Post-preparative stability (8 h at 4°C), nominal 2 ng/mL
[9] = Post-preparative stability (8 h at 4°C), nominal 800 ng/mL
[10] = Short-term stability (8 h at room temperature), nominal 2 ng/mL
[11] = Short-term stability (8 h at room temperature), nominal 800 ng/mL
[12] = Stock Solution Stability (8 h at room temperature), nominal 2 ng/mL
[13] = Stock Solution Stability (8 h at room temperature), nominal 800 ng/mL

SMILES: O=C(O)/C=C/c1cccc(O)c1 [Compound 3, m-coumaric acid, reference compound]
- activity at 10 µM [1]: 107 ± 15.2%

SMILES: COc1cc(/C=C/C(=O)O)ccc1O [Compound 4, ferulic acid, reference compound]
- activity at 10 µM [1]: 107 ± 17.3%

SMILES: CCCCOC(=O)[C@@H](Cc1ccc(O)c(O)c1)OC(=O)/C=C/c1ccc(O)c(O)c1 [RABU (9), rosmarinic acid butyl ester]
- activity at 10 µM [1]: 30.8 ± 5.2%
- IC50 [1]: 2.84 µM
- percentage of cells in G0/G1 compared to vehicle control (PDGF-BB-induced VSMC): significantly higher percentage of cells in G0/G1
- cell death (LDH release) (VSMC; up to 30 μmol/L): did not induce cell death
- intracellular concentration as share of applied concentration (cultured VSMC): 60%
- intracellular content normalized to protein (cultured VSMC; 10 μmol/L): around 2 pmol per µg of protein
- intracellularly accumulated concentration (cultured VSMC): about 6 μmol/L
- intracellular level relative to those of RAME and RAET (cultured VSMC): ~3 fold

SMILES: CCCCCCCCCCCCOC(=O)[C@@H](Cc1ccc(O)c(O)c1)OC(=O)/C=C/c1ccc(O)c(O)c1 [RADOD (11), rosmarinic acid dodecyl ester]
- VSMC proliferation ([1]; 1 μmol/L (data not shown)): unaffected
- VSMC proliferation ([1]; 3 μmol/L (data not shown)): completely abrogated
- activity at 10 µM [1]: 5.4 ± 8.1%
- cell death (LDH release) (VSMC; 30 μmol/L): comparable to that of the positive control, digitonin

SMILES: O=C(O)CCc1cccc(O)c1 [Compound 5, m-hydroxyphenylpropionic acid, reference compound]
- activity at 10 µM [1]: 120 ± 27.8%

SMILES: CCCCCCCCOC(=O)[C@@H](Cc1ccc(O)c(O)c1)OC(=O)/C=C/c1ccc(O)c(O)c1 [RAOCT (10), rosmarinic acid octyl ester]
- activity at 10 µM [1]: 33.8 ± 14.7%
- IC50 [1]: 2.22 µM
- percentage of cells in G0/G1 compared to vehicle control (PDGF-BB-induced VSMC): significantly higher percentage of cells in G0/G1
- cell death (LDH release) (VSMC; 30 μmol/L): marked but not significant increase in LDH production
- LDH release (VSMC; 3 and 10 μmol/L): distinct LDH release, which however did not reach significance
- concentration within VSMC (cultured VSMC; 10 μmol/L, 16.5 h time point): remained relatively high
- intracellularly accumulated concentration (cultured VSMC): about 6 μmol/L
- intracellular level relative to those of RAME and RAET (cultured VSMC): ~3 fold and ~4 fold

SMILES: CCOC(=O)[C@@H](Cc1ccc(O)c(O)c1)OC(=O)/C=C/c1ccc(O)c(O)c1 [RAET (8), rosmarinic acid ethyl ester]
- activity at 10 µM [1]: 32.8 ± 8.1%
- IC50 [1]: 3.37 µM
- cell death (LDH release) (VSMC; up to 30 μmol/L): did not induce cell death
- intracellular concentration as share of applied concentration (cultured VSMC): about 20%
- intracellular content normalized to protein (cultured VSMC; 10 μmol/L): around 2 pmol per µg of protein

SMILES: COC(=O)[C@@H](Cc1ccc(O)c(O)c1)OC(=O)C=Cc1ccc(O)c(O)c1 [RAME (7), rosmarinic acid methyl ester]
- activity of CDK4 (CDK4): affected only at much higher concentrations
- activity at 10 µM [1]: 41.5 ± 10.9%
- IC50 [1]: 7.9 µM
- cell death (LDH release) (VSMC; up to 30 μmol/L): did not induce cell death
- IC50 (CDK2): 11.4 µM
- intracellular concentration as share of applied concentration (cultured VSMC): about 20%
- intracellular content normalized to protein (cultured VSMC; 10 μmol/L): around 2 pmol per µg of protein

- Measured Concentration ([2]; Freeze-thaw stability (three cycles), nominal 2 ng/mL): 2.14 ± 0.09 ng/mL
- Measured Concentration ([2]; Freeze-thaw stability (three cycles), nominal 800 ng/mL): 786.67 ± 50.06 ng/mL
- Measured Concentration [2, 6]: 2.18 ± 0.09 ng/mL
- RE [2, 6]: 8.83%
- Measured Concentration [2, 7]: 770.67 ± 50.01 ng/mL
- RE [2, 7]: -3.67%
- Measured Concentration [2, 8]: 1.88 ± 0.13 ng/mL
- RE [2, 8]: -5.83%
- Measured Concentration [2, 9]: 737.00 ± 8.00 ng/mL
- RE [2, 9]: -7.88%
- Measured Concentration [2, 10]: 1.79 ± 0.07 ng/mL
- RE [2, 10]: -10.67%
- Measured Concentration [2, 11]: 762.33 ± 27.75 ng/mL
- RE [2, 11]: -4.71%
- Measured Concentration [2, 12]: 1.90 ± 0.08 ng/mL
- RE [2, 12]: -4.83%
- Measured Concentration [2, 13]: 782.33 ± 27.43 ng/mL
- RE [2, 13]: -2.21%
SMILES: O=C(/C=C/c1ccc(O)c(O)c1)O[C@H](Cc1ccc(O)c(O)c1)C(=O)O [RA (6), Rosmarinic acid]
- activity at 10 µM [1]: 78.1 ± 16.7%
- amount of orally ingested RA absorbed [3]: up to 1.69%
- cumulative proportions of all RA metabolites detected in urine (of the administered dose) [4]: about 32%
- cumulative proportions of all RA metabolites detected in urine (of the administered dose) [5]: ~6%
